Data: US5635593A (priority 1995, dated 1997)
Square brackets hold non-standard residues; d marks the D form. Peptide text beside a SMILES is read from it. Oic = O=C(O)[C@@H]1C[C@@H]2CCCC[C@@H]2N1; Hyp = O=C(O)[C@@H]1C[C@@H](O)CN1; dTic = O=C(O)[C@H]1Cc2ccccc2CN1; 2Thi = N[C@@H](Cc1cccs1)C(=O)O

How the values were obtained:
BK2 -receptor = target: T1, BK2 -receptor (Rattus norvegicus, UniProt P25023); test: rat uterus (RU) in vitro, antagonism of BK; details: against BK
T1 construct: guinea-pig ileum (GPI), rat uterus (RU) and rabbit jugular vein (RJV); from tissue; host or cells: rat uterus
T1 sequence (P25023 1-396): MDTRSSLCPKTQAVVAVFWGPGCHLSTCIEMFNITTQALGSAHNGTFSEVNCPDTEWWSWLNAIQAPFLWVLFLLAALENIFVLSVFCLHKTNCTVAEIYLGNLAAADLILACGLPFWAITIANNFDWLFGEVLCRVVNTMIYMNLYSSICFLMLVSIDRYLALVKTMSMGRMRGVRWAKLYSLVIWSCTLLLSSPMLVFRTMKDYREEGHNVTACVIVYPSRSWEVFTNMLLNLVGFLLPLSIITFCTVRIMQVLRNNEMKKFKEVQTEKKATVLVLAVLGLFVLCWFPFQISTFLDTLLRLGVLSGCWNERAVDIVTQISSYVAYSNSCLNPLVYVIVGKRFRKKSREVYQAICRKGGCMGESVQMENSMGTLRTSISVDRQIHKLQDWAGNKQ
Description: Thus, in vitro studies were performed on standard assay systems, namely, guinea-pig ileum (GPI), rat uterus (RU) and rabbit jugular vein (RJV). […] The potency of each compound was assessed as a pA2 value according to the method of Arunlakshana & Schild, Br. J. Pharmacol. Chemother., 14:48-58 (1959). The pA2 can be defined as the negative logarithm of the molar concentration of the antagonist in the presence of which the potency of the agonist is reduced two-fold, i.e., twice the amount of agonist is required to produce a given response in the presence of, than in the absence of, the antagonist. A high potency of antagonism is indicated by a high pA2 value. i.e., a low concentration of antagonist is effective.
The percentage recovery (% Rec) was also determined for compounds with respect to each assay.
With respect to duration of activity, it is noted that after exposure to the highest concentration of antagonist, each tissue was washed extensively and then assessed for recovery from the antagonist effect.
Potency in the rat uterus assay was assessed as described above and pA2 values determined.

BK2 receptor = target: T2, BK2 receptor (Oryctolagus cuniculus, UniProt Q28642); test: blood pressure response to BK2 agonist in LPS-pretreated rabbits; format: in vivo, rabbit; design: key to observed antagonist activity BK2, 1 / observed antagonist activity BK2, 3 / observed antagonist activity BK2, 10: +: complete blockade of the blood pressure response to the appropriate agonist; ±: partial blockade; -: no observable effect at the dose indicated; details: rabbits given LPS (10 μg) 20 hours before; for observed antagonist activity BK2, 1: 1 μg kg^-1 min^-1; for observed antagonist activity BK2, 3: 3 μg kg^-1 min^-1; for observed antagonist activity BK2, 10: 10 μg kg^-1 min^-1
T2 construct: from tissue; host or cells: whole animal (rabbit, LPS-pretreated), blood pressure response
T2 sequence (Q28642 1-367): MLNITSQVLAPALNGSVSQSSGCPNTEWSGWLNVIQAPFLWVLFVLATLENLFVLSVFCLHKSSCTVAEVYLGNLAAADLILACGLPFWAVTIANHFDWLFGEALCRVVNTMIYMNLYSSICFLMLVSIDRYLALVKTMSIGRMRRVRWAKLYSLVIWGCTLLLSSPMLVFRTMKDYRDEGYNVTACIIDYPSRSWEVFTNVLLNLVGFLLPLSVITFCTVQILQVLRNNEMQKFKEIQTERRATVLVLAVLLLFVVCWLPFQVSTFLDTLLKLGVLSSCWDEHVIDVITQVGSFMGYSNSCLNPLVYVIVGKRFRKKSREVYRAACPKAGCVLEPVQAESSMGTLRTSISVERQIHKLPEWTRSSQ
Text: (§1) That heterodimeric constructs block the activities attributable to two different receptor populations simultaneously when administered to an intact animal has been known using a standard assay of BK2 and BK1 receptor activity (see, deBlois, Bouthillier, and Marceau, Brit. J. Pharm., 103, 1057-1066, 1991). In normal rabbits, no changes in systemic arterial blood pressure can be detected in response to challenges with BK1 receptor agonists. There is, however, a predictable and reproducible response to BK2 agonists constituatively present. After stimulation with LPS BK1 receptor activity will develop over time such that profound responses to doses of BK1 agonists that were previously inconsequential in nature are observed after a 3-4 hour period. Responses to BK2 agonists are unchanged in these animals. At this point, one can test directly the ability to block both BK1 and BK2 mediated reductions in systemic blood pressure simultaneously with a heterodimeric antagonist.
(§2) FIGS. 8a, b and c comprise actual blood pressure traces from a series of experiments designed to illustrate the ability of a representative heterodimer (CP-0364) to block both BK1 - and BK2 - mediated hypotensive responses simultaneously.
(§3) The expected antagonist activity is based on the data summarized in Tables K and L. The in vivo experimental data reported are qualitative measurements of antagonist activity at three different doses (1, 3 and 10 μg kg^-1 min^-1) in rabbits given a sub-lethal dose of LPS (10 μg), 20 hours before initiation of the experiment.

BK1 receptor [1] = target: T3, BK1 receptor (Oryctolagus cuniculus, UniProt P48748); test: rabbit aorta in vitro, reversal of des-Arg^9 -BK contraction; design: on rabbit aorta (BK1 -receptor) in vitro; from tissue; host or cells: rabbit aorta; details: negative log of molar concentration causing 50% reversal of des-Arg^9 -BK (10^-7 M) contraction
T3 sequence (P48748 1-352): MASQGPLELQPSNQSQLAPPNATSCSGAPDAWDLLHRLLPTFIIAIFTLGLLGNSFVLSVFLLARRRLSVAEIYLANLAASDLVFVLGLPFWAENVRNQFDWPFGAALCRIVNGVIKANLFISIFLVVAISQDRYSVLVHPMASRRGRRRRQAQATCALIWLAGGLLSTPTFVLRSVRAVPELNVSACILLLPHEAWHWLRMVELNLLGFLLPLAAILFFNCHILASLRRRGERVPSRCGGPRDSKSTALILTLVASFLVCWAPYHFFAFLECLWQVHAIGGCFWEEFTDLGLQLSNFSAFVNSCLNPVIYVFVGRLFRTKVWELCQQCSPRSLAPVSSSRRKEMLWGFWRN
Description: Each antagonist was then added, in a cumulative fashion, on top of the contraction and the negative log of the molar concentration of the antagonist causing a 50% reversal (IC50) of the […] measured.

BK1 receptor [2] = target: T3, BK1 receptor; test: blood pressure response to BK1 agonist in LPS-pretreated rabbits; format: in vivo, rabbit; design: from tissue; host or cells: whole animal (rabbit, LPS-pretreated), blood pressure response; key to observed antagonist activity BK1, 1 / observed antagonist activity BK1, 3 / observed antagonist activity BK1, 10: +: complete blockade of the blood pressure response to the appropriate agonist; ±: partial blockade; -: no observable effect at the dose indicated; details: rabbits given LPS (10 μg) 20 hours before; for observed antagonist activity BK1, 1: 1 μg kg^-1 min^-1; for observed antagonist activity BK1, 3: 3 μg kg^-1 min^-1; for observed antagonist activity BK1, 10: 10 μg kg^-1 min^-1
Text: as §1, §2, §3

N=C(N)NCCC[C@@H](N)C(=O)N[C@@H](CCCNC(=N)N)C(=O)N1CCC[C@H]1C(=O)N1C[C@H](O)C[C@H]1C(=O)NCC(=O)N[C@@H](Cc1ccccc1)C(=O)N[C@@H](CO)C(=O)N1Cc2ccccc2C[C@@H]1C(=O)N1[C@H](C(=O)O)C[C@@H]2CCCC[C@@H]21 [CP-0267, D R--R--P--J--G--F--S--D Tic--Oic] (HELM PEPTIDE1{[dR].R.P.[Hyp].G.F.S.[O=C([C@H]1Cc2ccccc2CN1[*:1])[*:2]].[O=C(O)[C@@H]1C[C@@H]2CCCC[C@@H]2N1[*:1]]}$$$$V2.0; N-terminus and C-terminus assumed)
pA2 rat uterus (BK2) (BK2 -receptor): 5.7 ± 0.1 | observed antagonist activity BK2, 1 (BK2 receptor): - | observed antagonist activity BK2, 3 (BK2 receptor): - | BK1 rabbit aorta IC50 (BK1 receptor [1]): 7.5 ± 0.2 | observed antagonist activity BK1, 1 (BK1 receptor [2]): - | observed antagonist activity BK1, 3 (BK1 receptor [2]): - | observed antagonist activity BK1, 10 (BK1 receptor [2]): +

CC(C)C[C@H](NC(=O)[C@@H](Cc1ccccc1)NC(=O)[C@H](CSC1CC(=O)N(CCCCCCN2C(=O)CC(SC[C@H](NC(=O)[C@H](Cc3ccccc3)NC(=O)CNC(=O)[C@@H]3C[C@@H](O)CN3C(=O)[C@@H]3CCCN3C(=O)[C@H](CCCNC(=N)N)NC(=O)[C@H](N)CCCNC(=N)N)C(=O)N[C@H](Cc3ccccc3)C(=O)N[C@@H](CC(C)C)C(=O)N[C@@H](CCCNC(=N)N)C(=O)O)C2=O)C1=O)NC(=O)[C@H](Cc1ccccc1)NC(=O)CNC(=O)[C@@H]1C[C@@H](O)CN1C(=O)[C@@H]1CCCN1C(=O)[C@H](CCCNC(=N)N)NC(=O)[C@H](N)CCCNC(=N)N)C(=O)O (stereo partly shown) [CP-0273] (HELM PEPTIDE1{[dR].R.P.[Hyp].G.F.C.[dF].L.R}|PEPTIDE2{[dR].R.P.[Hyp].G.F.C.[dF].L}|CHEM1{[O=C1CC([*:1])C(=O)N1CCCCCCN1C(=O)CC([*:2])C1=O]}$PEPTIDE1,CHEM1,7:R3-1:R1|PEPTIDE2,CHEM1,7:R3-1:R2$$$V2.0; N-terminus and C-terminus assumed)
Kb (BK2 -receptor; read-out: pA2 rat uterus (BK2) (converted)): 6.31 nM | IC50 (BK1 receptor [1]): 2000 nM

N=C(N)NCCC[C@@H](N)C(=O)N[C@@H](CCCNC(=N)N)C(=O)N1CCC[C@H]1C(=O)N1C[C@H](O)C[C@H]1C(=O)NCC(=O)N[C@@H](Cc1cccs1)C(=O)N[C@@H](CO)C(=O)N1Cc2ccccc2C[C@@H]1C(=O)N1[C@H](C(=O)O)C[C@@H]2CCCC[C@@H]21 [CP-0345, D R--R--P--J--G--Thi--S--D Tic--Oic] (H-[dR]RP[Hyp]G[2Thi]S[dTic][Oic]-OH; N-terminus and C-terminus assumed)
pA2 rat uterus (BK2) (BK2 -receptor): 7.6 ± 0.4 | observed antagonist activity BK2, 1 (BK2 receptor): - | observed antagonist activity BK2, 10 (BK2 receptor): + | BK1 rabbit aorta IC50 (BK1 receptor [1]): 7.1 ± 0.1 | observed antagonist activity BK1, 1 (BK1 receptor [2]): - | observed antagonist activity BK1, 3 (BK1 receptor [2]): + | observed antagonist activity BK1, 10 (BK1 receptor [2]): +

CC(C)C[C@H](NC(=O)[C@@H]1CCCN1C(=O)[C@H](CO)NC(=O)[C@H](Cc1ccccc1)NC(=O)CNC(=O)[C@@H]1C[C@@H](O)CN1C(=O)[C@@H]1CCCN1C(=O)[C@H](CS)NC(=O)[C@@H](N)CCCCN)C(=O)O [CP-0374, K--C--P--J--G--F--S--P--L] (HELM PEPTIDE1{K.C.P.[Hyp].G.F.S.P.L}$$$$V2.0; N-terminus and C-terminus assumed)
pA2 rat uterus (BK2) (BK2 -receptor): no measurable activity | BK1 rabbit aorta IC50 (BK1 receptor [1]): 6.5 ± 0.3

CC(C)C[C@H](NC(=O)[C@@H](Cc1ccccc1)NC(=O)[C@H](CO)NC(=O)[C@H](Cc1ccccc1)NC(=O)CNC(=O)[C@@H]1C[C@@H](O)CN1C(=O)[C@@H]1CCCN1C(=O)[C@H](CSC1CC(=O)N(CCCCCCN2C(=O)CC(SC[C@H](NC(=O)[C@H](Cc3ccccc3)NC(=O)CNC(=O)[C@@H]3C[C@@H](O)CN3C(=O)[C@@H]3CCCN3C(=O)[C@H](CCCNC(=N)N)NC(=O)[C@H](N)CCCNC(=N)N)C(=O)N[C@H](Cc3ccccc3)C(=O)N[C@@H](CC(C)C)C(=O)N[C@@H](CCCNC(=N)N)C(=O)O)C2=O)C1=O)NC(=O)[C@H](N)CCCNC(=N)N)C(=O)O (stereo partly shown) [CP-0386] (HELM PEPTIDE1{[dR].R.P.[Hyp].G.F.C.[dF].L.R}|PEPTIDE2{[dR].C.P.[Hyp].G.F.S.[dF].L}|CHEM1{[O=C1CC([*:1])C(=O)N1CCCCCCN1C(=O)CC([*:2])C1=O]}$PEPTIDE1,CHEM1,7:R3-1:R1|PEPTIDE2,CHEM1,2:R3-1:R2$$$V2.0; N-terminus and C-terminus assumed)
pA2 rat uterus (BK2) (BK2 -receptor): 7.6 ± 0.1 | observed antagonist activity BK2, 1 (BK2 receptor): + | observed antagonist activity BK2, 3 (BK2 receptor): + | observed antagonist activity BK2, 10 (BK2 receptor): + | BK1 rabbit aorta IC50 (BK1 receptor [1]): 7.1 ± 0.2 | observed antagonist activity BK1, 1 (BK1 receptor [2]): + | observed antagonist activity BK1, 3 (BK1 receptor [2]): + | observed antagonist activity BK1, 10 (BK1 receptor [2]): +

CC(C)C[C@H](NC(=O)[C@@H]1CCCN1C(=O)[C@H](CO)NC(=O)[C@H](Cc1ccccc1)NC(=O)CNC(=O)[C@@H]1C[C@@H](O)CN1C(=O)[C@@H]1CCCN1C(=O)[C@H](CCCCNC(=O)CCCCCN1C(=O)CC(SC[C@H](NC(=O)[C@H](Cc2ccccc2)NC(=O)CNC(=O)[C@@H]2C[C@@H](O)CN2C(=O)[C@@H]2CCCN2C(=O)[C@H](CCCNC(=N)N)NC(=O)[C@H](N)CCCNC(=N)N)C(=O)N[C@H](Cc2ccccc2)C(=O)N[C@@H](CC(C)C)C(=O)N[C@@H](CCCNC(=N)N)C(=O)O)C1=O)NC(=O)[C@H](N)CCCNC(=N)N)C(=O)O (stereo partly shown) [CP-0389] (HELM PEPTIDE1{[dR].R.P.[Hyp].G.F.C.[dF].L.R}|PEPTIDE2{[dR].K.P.[Hyp].G.F.S.P.L}|CHEM1{[O=C1CC([*:1])C(=O)N1CCCCCC(=O)[*:2]]}$PEPTIDE1,CHEM1,7:R3-1:R1|PEPTIDE2,CHEM1,2:R3-1:R2$$$V2.0; N-terminus and C-terminus assumed; bridges inferred)
pA2 rat uterus (BK2) (BK2 -receptor): 7.4 ± 0.1 | BK1 rabbit aorta IC50 (BK1 receptor [1]): 6.5 ± 0.1
